Experimental data published in article PMC8776094, “Reactive Oxygen Species Production Is Responsible for Antineoplastic Activity of Osmium, Ruthenium, Iridium and Rhodium Half-Sandwich Type Complexes with Bidentate Glycosyl Heterocyclic Ligands in Various Cancer Cell Models” (International Journal of Molecular Sciences, 2022).

How the values were obtained:
[1] = tested on: A2780 ovarian cancer cells; assay: SRB assay, 48 h, cytostasis, A2780; type: cell-based; details: for cytostatic activity on A2780 cells in SRB assay (in words): 48 h treatment; for A2780 Max. Inh. (%): ND = not detected
Method: (§1) The compounds were tested between 0.001694 and 33.3333 µM, using a 4-hour-long MTT test to assess rapid toxicity and a 48-hour-long SRB assay to assess the long-term effects of the inhibition of proliferation (cytostasis). The MTT assay assesses the activity of mitochondrial complex I and detects rapid, direct toxicity, as well as indicating apoptosis and necrosis. The SRB assay measures the total protein content that is proportional to cell numbers; therefore, the assay can detect changes in cell numbers and can thus be used as a readout for cell proliferation. The SRB assay was performed after 48 h of treatment (with the exception of L428 cells, which were tested for 96 h due to their slower proliferation rate). In this setting, the SRB assay informs us of long-term changes to cell proliferation. We assessed the maximal inhibition within that concentration range, and descriptive statistics were performed. We performed a one-way ANOVA, followed by the Kruskal–Wallis test, regardless of the normal or non-normal distribution of the data. Due to the large number of significance values, the results of the significance calculations are provided in an Excel spreadsheet at https://figshare.com/s/28d14597d5041f08eb08 (accessed on 6 January 2022), among other primary data of the study. Where possible, nonlinear regression was performed on the curves to determine the IC50 values ((inhibitor) vs. response—variable slope (four parameters) method with Graphpad v8.0.1). […] In Table 5, we added the IC50 values that we determined for a set of 4 active ruthenium half-sandwich complexes we identified previously, to be used in subsequent structure-activity relationship (SAR) analyses.
(§2) A2780 cells were cultured in RMPI 1640 medium, supplemented with 10% fetal calf serum, 2 mM glutamine, and 1% penicillin-streptomycin.
(§3) The assay was performed similarly to the method used in [73]. Cells were seeded in 96-well plates the day before the assay. Cells were treated with the compounds for 48 h, with the exception of L428, where 96 h of treatment was applied. Cells were fixed with 10% trichloroacetic acid (TCA). Fixed cells were washed in distilled water 3 times, followed by staining with SRB (0.4 m/V% dissolved in 1% acetic acid) for 10 min. The stained cells were washed in 1% acetic acid 5 times; the acetic acid was removed, and the cells were left to dry. Protein-bound SRB was released by adding 100 µL 10 mM Tris base. Plates were measured in a plate photometer (Thermo Scientific Multiscan GO spectrophotometer, Waltham, MA, USA) at 540 nm. On each plate, wells were designed to contain untreated cells. In calculations, the readings for these wells were considered as 1 and all readings were expressed relative to these values.
(§4) Statistical analysis was performed using the 8.0.1 version of Graphpad Prism. Values were tested for normal distribution, using the d’Agostino and Pearson normality test. When necessary, values were log-normalized or were normalized using the Box-Cox normalization method or using a two-step transformation, as indicated in the figure captions. Nonlinear regression was performed using the built-in “[Inhibitor] vs. Response—Variable slope (four parameters), least-square fit” utility of Graphpad, yielding the IC50 and Hill slope values.

[2] = Determination of the distribution coefficients (logD), n-octanol/PBS; type: physicochemical; details: n-octanol / PBS pH = 7.40, rt
Method: Before starting the experiments, n-octanol was saturated with an aqueous PBS solution (pH = 7.40) and vice versa. A solution of the appropriate complex (approximately 0.2–0.3 mg) in a mixture of 2.50 mL pre-saturated n-octanol and 2.50 mL pre-saturated PBS buffer was made, and the resulting mixture was then vigorously stirred for 3 days at rt. Based on our previous NMR stability experiments, this time is long enough to reach equilibrium among the various ionic complex species. Due to the lipophilic/hydrophilic features of the complexes, those with benzoyl protection could primarily be found in the n-octanol, while the complexes with O-peracetylated and O-deprotected ligands were in the aqueous PBS phase. The corresponding separated solution was centrifuged (ScanSpeed 406G instrument, 4000 RPM for 5 min) and the absorption of the ”stock solution” was determined (VWR UV-1600PC Spectrophotometer, 270–420 nm). Then, 2.00 mL of the stock solution was vigorously stirred with 16.00 mL of pre-saturated n-octanol or PBS solution. After one day had passed, the phases were separated, centrifuged, and the absorption of the solution was measured again. From the absorption difference of the stock solutions, the distribution coefficient (D) was determined using previously described formulae [71].

[3] = tested on: ID8 ovarian cancer cell line; assay: SRB assay, 48 h, cytostasis, ID8; type: cell-based; details: for cytostatic activity on ID8 cells, SRB assay (in words): 48 h treatment; for ID8 Max. Inh. (%): SRB assay, 48 h, ND = not detected
Method: as §1
(§5) ID8 cells were cultured in a high-glucose DMEM (4.5 g/L glucose) medium, supplemented with 4% fetal calf serum, 2 mM glutamine, 1% penicillin-streptomycin, and 1% ITS supplement (I3146).
as §3, §4

[4] = tested on: ID8 ovarian cancer cell line; assay: MTT reduction assay, 4 h, rapid toxicity, ID8; type: cell-based; details: MTT assay, 4 h treatment; ND = not detected or cannot be calculated
Method: as §1, §5
(§6) The MTT reduction assay measures the activity of mitochondrial complex I and can be used to detect apoptosis and necrosis. The assay was performed similarly to the method used in [72]. Briefly, cells were plated in 96-well plates the day before the assay. Cells were treated with the compounds for 4 h, then MTT was added at 0.5 mg/mL final concentration and the cells were incubated at 37 °C in a cell incubator. The culture media were removed and the reduced MTT dye was dissolved in dimethyl-sulfoxide (DMSO) and plates were measured in a plate photometer (Thermo Scientific Multiscan GO spectrophotometer, Waltham, MA, USA) at 540 nm. On each plate, wells were designed to contain untreated/vehicle-treated cells. In the calculations, the readings for these wells were considered as 1 and all readings were expressed relative to these values.

[5] = tested on: A2780 ovarian cancer cells; assay: MTT reduction assay, 4 h, rapid toxicity, A2780; type: cell-based; details: 4 h treatment
Method: as §1, §2, §6

[6] = tested on: Capan2, a pancreatic adenocarcinoma cell line; assay: SRB assay, 48 h, cytostasis, Capan2; type: cell-based; details: SRB assay, ND = not detected
Excerpt: We turned next to assessing whether the cytostatic activity of Os-3, Os-4, Os-5, Os-6 and Ir-6 complexes is specific for ovarian cancer cell lines or if they may be active on other cell lines. To that end, we tested the complexes on another carcinoma cell line (Capan2, a pancreatic adenocarcinoma cell line), on a sarcoma cell line (Saos, an osteosarcoma cell line) and on a lymphoma cell line (L428, a Hodgkin’s lymphoma cell line).
Capan2 cells were maintained in MEM, 10% fetal bovine serum, 1% penicillin/streptomycin, and 2 mM glutamine.
as §3, §4
Here, 1.5 × 10^3 Capan2, 3 × 10^3 Saos cells and 10^4 L428 cells were plated onto 96-well plates. Capan2 and Saos cells were treated with the compounds in the concentrations indicated for 48 h for an SRB assay. L428 cells were treated with the compounds in the concentrations indicated for 96 h, then cells were counted using conventional microscopy and a Burker chamber. Data are represented as average ± SD, from three biological replicates; individual assays were performed in duplicate. Values were normalized for vehicle-treated cells; the absorbance for vehicle-treated cells is equal to 1. A one-way ANOVA, followed by a Kruskal–Wallis test, was performed individually for each compound. The results of the statistical analysis are presented in an Excel spreadsheet at https://figshare.com/s/28d14597d5041f08eb08 (accessed on 6 January 2022). Nonlinear regression was performed on the data.

Molecule	A2780 Max. Inh. (%) ([1]; SRB assay, 48 h)	LogD [2]	further results
CC(=O)OCC1OC(n2cc(-c3ccccn3)nn2)C(OC(C)=O)C(OC(C)=O)C1OC(C)=O.Cc1c(C)c(C)[c-](C)c1C.F[P-](F)(F)(F)(F)F.[Cl][Ir+2] (mixture of isomers) [Ir-11]	20.26	–	cytostatic activity on A2780 cells in SRB assay (in words) [1]: biologically inactive
Cc1c(C)c(C)[c-](C)c1C.F[P-](F)(F)(F)(F)F.OCC1OC(c2nnc(-c3ccccn3)o2)C(O)C(O)C1O.[Cl][Ir+2] (mixture of isomers) [Ir-9]	21.29	−1.47	–
Cc1c(C)c(C)[c-](C)c1C.F[P-](F)(F)(F)(F)F.OCC1OC(c2nnc(-c3ccccn3)o2)C(O)C(O)C1O.[Cl][Ir+2] (mixture of isomers) [Ir-8]	–	−1.60	–
Cc1c(C)c(C)[c-](C)c1C.F[P-](F)(F)(F)(F)F.O=C(OCC1OC(c2noc(-c3ccccn3)n2)C(OC(=O)c2ccccc2)C(OC(=O)c2ccccc2)C1OC(=O)c1ccccc1)c1ccccc1.[Cl][Ir+2] (mixture of isomers) [Ir-1]	35.13	2.87	–
Cc1c(C)c(C)[c-](C)c1C.F[P-](F)(F)(F)(F)F.O=C(OC1COC(c2nnc(-c3ccccn3)o2)C(OC(=O)c2ccccc2)C1OC(=O)c1ccccc1)c1ccccc1.[Cl][Rh+2] (mixture of isomers) [Rh-5]	51.28	1.8	cytostatic activity on ID8 cells, SRB assay (in words) [3]: mild cytostatic activity; ID8 Max. Inh. (%) [3]: 75.25%; Maximum Inhibition (%) ID8 [4]: 21.87%
Cc1c(C)c(C)[c-](C)c1C.F[P-](F)(F)(F)(F)F.O=C(OCC1OC(n2cc(-c3ccccn3)nn2)C(OC(=O)c2ccccc2)C(OC(=O)c2ccccc2)C1OC(=O)c1ccccc1)c1ccccc1.[Cl][Rh+2] (mixture of isomers) [Rh-6]	59	1.85	cytostatic activity on ID8 cells, SRB assay (in words) [3]: mild cytostatic activity; ID8 Max. Inh. (%) [3]: 43.70%; IC50 ([1]; SRB assay, 48 h): 25.3 µM; Maximum Inhibition (%) ID8 [4]: 28.28%
Cc1c(C)c(C)[c-](C)c1C.F[P-](F)(F)(F)(F)F.O=C(OC1COC(c2nnc(-c3ccccn3)o2)C(OC(=O)c2ccccc2)C1OC(=O)c1ccccc1)c1ccccc1.[Cl][Ir+2] (mixture of isomers) [Ir-5]	45.45	1.80	ID8 Max. Inh. (%) [3]: 53.15%
O=C(OC[C@H]1O[C@@H](c2noc(-c3ccccn3)n2)[C@H](OC(=O)c2ccccc2)[C@@H](OC(=O)c2ccccc2)[C@@H]1OC(=O)c1ccccc1)c1ccccc1 [Complex L-1, 3-(2′,3′,4′,6′-Tetra-O-benzoyl-β-D-glucopyranosyl)-5-(pyridin-2-yl)-1,2,4-oxadiazole]	–	–	cytostatic activity on A2780 cells in SRB assay (in words) [1]: practically inactive; toxicity on A2780 cells in short-term MTT assay (in words) [5]: practically inactive
Cc1c(C)c(C)[c-](C)c1C.F[P-](F)(F)(F)(F)F.OCC1OC(c2noc(-c3ccccn3)n2)C(O)C(O)C1O.[Cl][Ir+2] (mixture of isomers) [Ir-2]	36.38	−1.15	–
CC(=O)OCC1OC(c2nnc(-c3ccccn3)o2)C(OC(C)=O)C(OC(C)=O)C1OC(C)=O.Cc1c(C)c(C)[c-](C)c1C.F[P-](F)(F)(F)(F)F.[Cl][Ir+2] (mixture of isomers) [Ir-7]	26.91	−0.75	–
Cc1c(C)c(C)[c-](C)c1C.F[P-](F)(F)(F)(F)F.O=C(OCC1OC(c2nnc(-c3ccccn3)o2)C(OC(=O)c2ccccc2)C(OC(=O)c2ccccc2)C1OC(=O)c1ccccc1)c1ccccc1.[Cl][Rh+2] (mixture of isomers) [Rh-3]	39.86	1.60	–
Cc1c(C)c(C)[c-](C)c1C.F[P-](F)(F)(F)(F)F.O=C(OCC1OC(c2nnc(-c3ccccn3)o2)C(OC(=O)c2ccccc2)C(OC(=O)c2ccccc2)C1OC(=O)c1ccccc1)c1ccccc1.[Cl][Rh+2] (mixture of isomers) [Rh-4]	35.30	1.64	–
Cc1c(C)c(C)[c-](C)c1C.F[P-](F)(F)(F)(F)F.OCC1OC(n2cc(-c3ccccn3)nn2)C(O)C(O)C1O.[Cl][Ir+2] (mixture of isomers) [Ir-12]	19.11	–	cytostatic activity on A2780 cells in SRB assay (in words) [1]: biologically inactive
dichloro(η^6-p-cymene)osmium(II) dimer [Os-dimer]	–	–	cytostatic activity on ID8 cells, SRB assay (in words) [3]: inactive; cytostatic activity on A2780 cells in SRB assay (in words) [1]: inactive
Cc1c(C)c(C)[c-](C)c1C.F[P-](F)(F)(F)(F)F.OC1COC(c2nnc(-c3ccccn3)o2)C(O)C1O.[Cl][Ir+2] (mixture of isomers) [Ir-10]	23.12	−1.56	–
Cc1c(C)c(C)[c-](C)c1C.F[P-](F)(F)(F)(F)F.O=C(OCC1OC(c2nnc(-c3ccccn3)o2)C(OC(=O)c2ccccc2)C(OC(=O)c2ccccc2)C1OC(=O)c1ccccc1)c1ccccc1.[Cl][Ir+2] (mixture of isomers) [Ir-3]	69.25	1.46	Capan2 Max. Inh. (%) [6]: 27.62%; cytostatic activity on A2780 cells in SRB assay (in words) [1]: mild; Maximum Inhibition (%) ID8 [4]: 26.11%
Cc1c(C)c(C)[c-](C)c1C.F[P-](F)(F)(F)(F)F.O=C(OCC1OC(c2nnc(-c3ccccn3)o2)C(OC(=O)c2ccccc2)C(OC(=O)c2ccccc2)C1OC(=O)c1ccccc1)c1ccccc1.[Cl][Ir+2] (mixture of isomers) [Ir-4]	32.45	1.46	–
